# Like-named read-outs stand apart in the source and are kept apart here.
# Tests used:
# [1] = system: mycoplasma strain no. 348; test: Mycoplasmas/Inhibitory concentration test, strain 348; assay type: cell-based; conditions: NO.348, read-out: MIC value, mycoplasma strain no. 348
# Experimental: (§1) The test was carried out on microtiter plates. Series of concentrations of the active compound in 0.01 N soda solution were prepared. The concentrations were from 256 μg/ml to 0.0156 μg/ml.
# (§2) 0.5 ml of an active compound solution are placed in each identation in the microtiter plate. To this 0.5 ml of an inoculum of mycoplasmas containing about 10^6 organisms per ml were added.
# (§3) The inoculum consisted of a modified mycoplasma broth (PPLO) which contained about 20% of horse serum and in which mycoplasmas had been cultured to a titer of about 10^7 organisms per ml (determined by the MacCrady method).
# (§4) Then the microtiter plate was incubated at 37° C. and the growth determined after 48, 72 and 96 hours. That concentration of active compound, which prevented any increase in the moculated mycoplasmas was taken as the MIC-value.
# [2] = system: mycoplasma strain no. 8008; test: Mycoplasmas/Inhibitory concentration test, strain 8008; assay type: cell-based
# Experimental: as §1, §2, §3, §4
# [3] = system: mycoplasma strain no. 4587; test: Mycoplasmas/Inhibitory concentration test, strain 4587; assay type: cell-based
# Experimental: as §1, §2, §3, §4
# [4] = system: mycoplasmas mycopneumoniae; test: Treatment of mycoplasmoses in pigs; assay type: in vivo, piglets; conditions: lungs examined on the 34th day
# Description: Groups of 5 piglets with an average weight of 25 kg were fed with standard piglet feed from the beginning of the test, to which feed the stated quantities of active compound had been added.
# On the 4th day after the beginning of the test, the animals were infected with mycoplasmas mycopneumoniae. As from the 10th day the animals were only given feed not containing any active compound. On the 34th day the animals were killed and the lungs were examined for lesions.
# [5] = system: mycoplasma strain no. 7981; test: Mycoplasmas/Inhibitory concentration test, strain 7981; assay type: cell-based
# Experimental: as §1, §2, §3, §4
# [6] = system: mycoplasma strain no. 81115; test: Mycoplasmas/Inhibitory concentration test, strain 81115; assay type: cell-based
# Experimental: as §1, §2, §3, §4
# [7] = system: mycoplasma gallisepticum; test: Treatment of mycoplasmoses in poultry; assay type: in vivo, chicken; conditions: for clinical symptoms: animals killed 19 days after infection; for Average weight of the animals after 14: after 14 days; for Average weight of the animals after 19: after 19 days; for Average weight of the animals after 0: day 0 (before treatment)
# Experimental: Groups of 40 chicken which were free from mycoplasma gallisepticum and mycoplasma synoviae were infected at the second day after hatching with a pathogenic wild strain of mycoplasma gallisepticum. The treatment began 24 hours after the infection. One group of 40 chickens was not treated and served as a control. The chickens were treated via their drinking water at 5 successive days following the infection. 19 days after the infection the animals were killed, weighed and examined.
# [8] = system: mycoplasma strain no. 6442; test: Mycoplasmas/Inhibitory concentration test, strain 6442; assay type: cell-based
# Experimental: as §1, §2, §3, §4
# [9] = 250 ppm in drinking water, 5 successive days
# [10] = NO.8008, series 256 μg/ml to 0.0156 μg/ml, growth after 48, 72 and 96 hours, 37° C., read-out: MIC value, mycoplasma strain no. 8008
# [11] = NO.4587, series 256 μg/ml to 0.0156 μg/ml, growth after 48, 72 and 96 hours, 37° C., read-out: MIC value, mycoplasma strain no. 4587
# [12] = NO.7981, series 256 μg/ml to 0.0156 μg/ml, growth after 48, 72 and 96 hours, 37° C., read-out: MIC value, mycoplasma strain no. 7981
# [13] = NO.81115, series 256 μg/ml to 0.0156 μg/ml, growth after 48, 72 and 96 hours, 37° C., read-out: MIC value, mycoplasma strain no. 81115
# [14] = NO.6442, series 256 μg/ml to 0.0156 μg/ml, growth after 48, 72 and 96 hours, 37° C., read-out: MIC value, mycoplasma strain no. 6442
# [15] = 500 ppm in drinking water, 5 successive days
compound,measurement,setting,value
CCN1CCN(c2cc3c(cc2F)c(=O)c(C(=O)O)cn3C2CC2)CC1 [Compound I],MIC,[1],0.5 µg/mL
same,MIC,"[2]; NO.8008, read-out: MIC value, mycoplasma strain no. 8008",0.25 µg/mL
same,MIC,"[3]; NO.4587, read-out: MIC value, mycoplasma strain no. 4587",0.5 µg/mL
same,result (lung lesions),[4]; 50 mg/kg in the feed,no lesions
same,result (lung lesions),[4]; 100 mg/kg in the feed,no lesions
same,MIC,"[5]; NO.7981, read-out: MIC value, mycoplasma strain no. 7981",0.5 µg/mL
same,MIC,"[6]; NO.81115, read-out: MIC value, mycoplasma strain no. 81115",0.5 µg/mL
same,clinical symptoms,[7]; [9],none
same,Average weight of the animals after 14,[7]; [9],355.7
same,Average weight of the animals after 19,[7]; [9],463.8
same,Average weight of the animals after 0,[7]; 250 ppm in drinking water,47.3
same,MIC,"[8]; NO.6442, read-out: MIC value, mycoplasma strain no. 6442",0.15 µg/mL
C=C[C@]1(C)C[C@@H](OC(=O)CSCCN(CC)CC)[C@]2(C)[C@H](C)CC[C@]3(CCC(=O)[C@H]32)[C@@H](C)[C@@H]1O [Tiamulin],result (lung lesions),"[4]; 200 mg/kg in the feed, control 10%",5%
CC1CCc2cc(F)cc3c(=O)c(C(=O)O)cn1c23 (stereo not drawn) [flumequine],MIC,[1],256 µg/mL
same,MIC,[2]; [10],256 µg/mL
same,MIC,[3]; [11],256 µg/mL
same,MIC,[5]; [12],256 µg/mL
same,MIC,[6]; [13],256 µg/mL
same,MIC,[8]; [14],256 µg/mL
CCn1cc(C(=O)O)c(=O)c2ccc(C)nc21 [nalidixic acid],MIC,[1],128 µg/mL
same,MIC,[2]; [10],128 µg/mL
same,MIC,[3]; [11],128 µg/mL
same,MIC,[5]; [12],128 µg/mL
same,MIC,[6]; [13],128 µg/mL
same,MIC,[8]; [14],128 µg/mL
Tylocin,clinical symptoms,[7]; [15],clearly noticeable
same,animals dead (clinical symptoms),"[7]; 500 ppm in drinking water, 5 successive days, groups of 40 chickens",no animals dead
same,Average weight of the animals after 14,[7]; [15],311.9
same,Average weight of the animals after 19,[7]; [15],426.3
same,Average weight of the animals after 0,[7]; 500 ppm in drinking water,48.4
